The NIST ThermoML archive (doi:10.1016/j.jct.2008.01.017)
± gives the expanded uncertainty stated by the source.

Assays:
[1] = 293.15 K, 101.33 kPa, Liquid
[2] = refractive index (Na D-line) (dimensionless); conditions: 293.15 K; 101.33 kPa; Liquid; Standard Abbe refractometry
[3] = excess molar enthalpy (molar enthalpy of mixing); xn = mol fraction of the nth substance listed; conditions: 101 kPa, Liquid, Flow calorimetry

CC#N [acetonitrile]
Conditions	mass density [kg/m3]
[1], Vibrating tube method	784.6 ± 0.2

Conditions	refractive index
[2]	1.3441 ± 0.0007

CCCCCCCO [heptan-1-ol]
Conditions	mass density [kg/m3]	refractive index
[1]	822.3 ± 0.7	–
[2]	–	1.4245 ± 0.0007

CCCCCCCO [heptan-1-ol] + CC#N
[3]
Conditions	excess molar enthalpy [kcal/mol]
298.15 K, x1 = 0.0529	0.141 ± 0.00335
298.15 K, x1 = 0.1128	0.261 ± 0.00454
298.15 K, x1 = 0.1738	0.365 ± 0.00598
298.15 K, x1 = 0.2352	0.435 ± 0.00693
298.15 K, x1 = 0.2962	0.485 ± 0.00765
298.15 K, x1 = 0.3561	0.516 ± 0.00813
298.15 K, x1 = 0.4143	0.53 ± 0.00837
298.15 K, x1 = 0.4701	0.532 ± 0.00837
298.15 K, x1 = 0.5231	0.523 ± 0.00837
298.15 K, x1 = 0.573	0.505 ± 0.00813
298.15 K, x1 = 0.6194	0.479 ± 0.00765
298.15 K, x1 = 0.6623	0.449 ± 0.00717
298.15 K, x1 = 0.7015	0.416 ± 0.00669
298.15 K, x1 = 0.7692	0.349 ± 0.00574
298.15 K, x1 = 0.8038	0.303 ± 0.00502
298.15 K, x1 = 0.8621	0.221 ± 0.00382
298.15 K, x1 = 0.9271	0.116 ± 0.00287
313.15 K, x1 = 0.0698	0.186 ± 0.0043
313.15 K, x1 = 0.1417	0.326 ± 0.00526
313.15 K, x1 = 0.2146	0.43 ± 0.00693
313.15 K, x1 = 0.2872	0.504 ± 0.00789
313.15 K, x1 = 0.3584	0.545 ± 0.0086
313.15 K, x1 = 0.427	0.56 ± 0.00884
313.15 K, x1 = 0.4923	0.561 ± 0.00884
313.15 K, x1 = 0.5533	0.548 ± 0.0086
313.15 K, x1 = 0.6096	0.52 ± 0.00813
313.15 K, x1 = 0.6608	0.481 ± 0.00765
313.15 K, x1 = 0.707	0.438 ± 0.00693
313.15 K, x1 = 0.7482	0.392 ± 0.00621
313.15 K, x1 = 0.7845	0.348 ± 0.00574
313.15 K, x1 = 0.8163	0.304 ± 0.00502
313.15 K, x1 = 0.8439	0.26 ± 0.0043
313.15 K, x1 = 0.8642	0.228 ± 0.00382
313.15 K, x1 = 0.9283	0.121 ± 0.00287
323.15 K, x1 = 0.0704	0.19 ± 0.00454
323.15 K, x1 = 0.1429	0.348 ± 0.00574
323.15 K, x1 = 0.2161	0.469 ± 0.00741
323.15 K, x1 = 0.2891	0.541 ± 0.0086
323.15 K, x1 = 0.3605	0.574 ± 0.00908
323.15 K, x1 = 0.4293	0.585 ± 0.00932
323.15 K, x1 = 0.4946	0.58 ± 0.00908
323.15 K, x1 = 0.5555	0.565 ± 0.00884
323.15 K, x1 = 0.6117	0.54 ± 0.0086
323.15 K, x1 = 0.6629	0.498 ± 0.00789
323.15 K, x1 = 0.7089	0.452 ± 0.00717
323.15 K, x1 = 0.7499	0.404 ± 0.00645
323.15 K, x1 = 0.786	0.359 ± 0.00574
323.15 K, x1 = 0.8177	0.315 ± 0.00526
323.15 K, x1 = 0.8451	0.273 ± 0.00454
323.15 K, x1 = 0.8642	0.242 ± 0.00406
323.15 K, x1 = 0.9283	0.133 ± 0.00311

CCCCCCCCO [octan-1-ol]
Conditions	mass density [kg/m3]	refractive index
[1]	825.8 ± 0.6	–
[2]	–	1.4293 ± 0.0007

CCCCCCCCO [octan-1-ol] + CC#N
[3]
Conditions	excess molar enthalpy [kcal/mol]
298.15 K, x1 = 0.0476	0.161 ± 0.00406
298.15 K, x1 = 0.0971	0.282 ± 0.00621
298.15 K, x1 = 0.1479	0.375 ± 0.00621
298.15 K, x1 = 0.1998	0.449 ± 0.00717
298.15 K, x1 = 0.2521	0.502 ± 0.00789
298.15 K, x1 = 0.3044	0.541 ± 0.0086
298.15 K, x1 = 0.3562	0.566 ± 0.00908
298.15 K, x1 = 0.407	0.58 ± 0.00908
298.15 K, x1 = 0.471	0.583 ± 0.00932
298.15 K, x1 = 0.5316	0.565 ± 0.00884
298.15 K, x1 = 0.5882	0.539 ± 0.0086
298.15 K, x1 = 0.6879	0.459 ± 0.00741
298.15 K, x1 = 0.7685	0.369 ± 0.00598
298.15 K, x1 = 0.802	0.328 ± 0.00526
298.15 K, x1 = 0.8567	0.245 ± 0.00406
298.15 K, x1 = 0.8975	0.176 ± 0.00311
298.15 K, x1 = 0.9375	0.117 ± 0.00287
313.15 K, x1 = 0.063	0.205 ± 0.00478
313.15 K, x1 = 0.1288	0.361 ± 0.00598
313.15 K, x1 = 0.1966	0.487 ± 0.00789
313.15 K, x1 = 0.2652	0.568 ± 0.00908
313.15 K, x1 = 0.3335	0.614 ± 0.0098
313.15 K, x1 = 0.4003	0.635 ± 0.01
313.15 K, x1 = 0.4647	0.635 ± 0.01
313.15 K, x1 = 0.5259	0.62 ± 0.0098
313.15 K, x1 = 0.583	0.592 ± 0.00932
313.15 K, x1 = 0.6357	0.551 ± 0.00884
313.15 K, x1 = 0.6837	0.501 ± 0.00789
313.15 K, x1 = 0.7268	0.452 ± 0.00717
313.15 K, x1 = 0.7653	0.404 ± 0.00645
313.15 K, x1 = 0.7992	0.359 ± 0.00574
313.15 K, x1 = 0.8288	0.315 ± 0.00526
313.15 K, x1 = 0.8762	0.236 ± 0.00406
313.15 K, x1 = 0.9349	0.124 ± 0.00311
323.15 K, x1 = 0.0633	0.218 ± 0.00526
323.15 K, x1 = 0.1295	0.397 ± 0.00669
323.15 K, x1 = 0.1975	0.541 ± 0.0086
323.15 K, x1 = 0.2663	0.613 ± 0.0098
323.15 K, x1 = 0.3347	0.655 ± 0.0103
323.15 K, x1 = 0.4017	0.672 ± 0.0105
323.15 K, x1 = 0.4661	0.669 ± 0.0105
323.15 K, x1 = 0.5273	0.651 ± 0.0103
323.15 K, x1 = 0.5844	0.619 ± 0.0098
323.15 K, x1 = 0.637	0.575 ± 0.00908
323.15 K, x1 = 0.6849	0.529 ± 0.00837
323.15 K, x1 = 0.7279	0.478 ± 0.00765
323.15 K, x1 = 0.7663	0.428 ± 0.00693
323.15 K, x1 = 0.8001	0.383 ± 0.00621
323.15 K, x1 = 0.8296	0.335 ± 0.0055
323.15 K, x1 = 0.8768	0.248 ± 0.0043
323.15 K, x1 = 0.9352	0.131 ± 0.00335
